The NIST ThermoML archive (doi:10.1016/j.tca.2017.03.018)
± gives the expanded uncertainty stated by the source.

Legend:
[1] = relative permittivity at zero frequency (dimensionless); wn = mass fraction of the nth substance listed; settings: 100 kPa, Liquid, time-domain reflectometry
[2] = relative permittivity at zero frequency (dimensionless); settings: 100 kPa, Liquid, time-domain reflectometry

| SMILES | relative permittivity at zero frequency ([1]; 283.15 K, w1 = 0.05) | relative permittivity at zero frequency ([1]; 283.15 K, w1 = 0.1) | relative permittivity at zero frequency ([1]; 283.15 K, w1 = 0.15) | relative permittivity at zero frequency ([1]; 288.15 K, w1 = 0.05) | relative permittivity at zero frequency ([1]; 288.15 K, w1 = 0.1) | relative permittivity at zero frequency ([1]; 288.15 K, w1 = 0.15) | relative permittivity at zero frequency ([1]; 293.15 K, w1 = 0.05) | relative permittivity at zero frequency ([1]; 293.15 K, w1 = 0.1) | relative permittivity at zero frequency ([1]; 293.15 K, w1 = 0.15) | relative permittivity at zero frequency ([1]; 298.15 K, w1 = 0.05) | relative permittivity at zero frequency ([1]; 298.15 K, w1 = 0.1) | relative permittivity at zero frequency ([1]; 298.15 K, w1 = 0.15) | relative permittivity at zero frequency ([1]; 283.15 K, w2 = 0) | relative permittivity at zero frequency ([1]; 288.15 K, w2 = 0) | relative permittivity at zero frequency ([1]; 293.15 K, w2 = 0) | relative permittivity at zero frequency ([1]; 298.15 K, w2 = 0) | further results |
| --- | --- | --- | --- | --- | --- | --- | --- | --- | --- | --- | --- | --- | --- | --- | --- | --- | --- |
| OC[C@@H](O)[C@@H](O)[C@H](O)[C@H](O)CO [mannitol] + C[S+](C)[O-] | 52.35 ± 1.1 | 55.31 ± 1.1 | 56.79 ± 1.1 | 50.82 ± 1 | 52.92 ± 1.1 | 55.37 ± 1.1 | 49.49 ± 0.99 | 51.48 ± 1 | 53.15 ± 1.1 | 48.89 ± 0.98 | 50.27 ± 1 | 52.18 ± 1 |  |  |  |  |  |
| C[S+](C)[O-] [dimethyl sulfoxide] |  |  |  |  |  |  |  |  |  |  |  |  |  |  |  |  | relative permittivity at zero frequency ([2]; 283.15 K): 50.58 ± 1; relative permittivity at zero frequency ([2]; 288.15 K): 49.42 ± 0.99; relative permittivity at zero frequency ([2]; 293.15 K): 47.81 ± 0.96; relative permittivity at zero frequency ([2]; 298.15 K): 47.3 ± 0.95 |
| C[S+](C)[O-] [dimethyl sulfoxide] + OC[C@@H](O)[C@H](O)[C@@H](O)CO |  |  |  |  |  |  |  |  |  |  |  |  | 50.58 ± 1 | 49.42 ± 0.99 | 47.81 ± 0.96 | 47.3 ± 0.95 |  |
| OC[C@@H](O)[C@H](O)[C@@H](O)CO [xylitol] + C[S+](C)[O-] | 52.53 ± 1.1 | 53.28 ± 1.1 | 56.35 ± 1.1 | 50.33 ± 1 | 51.31 ± 1 | 53.72 ± 1.1 | 49.39 ± 0.99 | 50.11 ± 1 | 52.45 ± 1.1 | 48.1 ± 0.96 | 49.63 ± 0.99 | 51.6 ± 1 |  |  |  |  | relative permittivity at zero frequency ([1]; 283.15 K, w1 = 0.2): 58.46 ± 1.2; relative permittivity at zero frequency ([1]; 283.15 K, w1 = 0.25): 58.08 ± 1.2; relative permittivity at zero frequency ([1]; 288.15 K, w1 = 0.2): 55.28 ± 1.1; relative permittivity at zero frequency ([1]; 288.15 K, w1 = 0.25): 55.18 ± 1.1; relative permittivity at zero frequency ([1]; 293.15 K, w1 = 0.2): 53.97 ± 1.1; relative permittivity at zero frequency ([1]; 293.15 K, w1 = 0.25): 54.23 ± 1.1; relative permittivity at zero frequency ([1]; 298.15 K, w1 = 0.2): 53.03 ± 1.1; relative permittivity at zero frequency ([1]; 298.15 K, w1 = 0.25): 53.69 ± 1.1 |
| C[S+](C)[O-] [dimethyl sulfoxide] + OC[C@@H](O)[C@@H](O)CO |  |  |  |  |  |  |  |  |  |  |  |  | 50.58 ± 1 | 49.42 ± 0.99 | 47.81 ± 0.96 | 47.3 ± 0.95 |  |
| C[S+](C)[O-] [dimethyl sulfoxide] + OC[C@@H](O)[C@@H](O)[C@H](O)[C@H](O)CO |  |  |  |  |  |  |  |  |  |  |  |  | 50.58 ± 1 | 49.42 ± 0.99 | 47.81 ± 0.96 | 47.3 ± 0.95 |  |
| OC[C@@H](O)[C@@H](O)CO [meso-1,2,3,4-butanetetrol] + C[S+](C)[O-] | 51.26 ± 1 | 54.06 ± 1.1 | 55.7 ± 1.1 | 50.01 ± 1 | 51.84 ± 1 | 52.87 ± 1.1 | 48.57 ± 0.97 | 50.49 ± 1 | 51.35 ± 1 | 47.78 ± 0.96 | 48.96 ± 0.98 | 50.43 ± 1 |  |  |  |  | relative permittivity at zero frequency ([1]; 283.15 K, w1 = 0.2): 57.23 ± 1.1; relative permittivity at zero frequency ([1]; 283.15 K, w1 = 0.25): 58.96 ± 1.2; relative permittivity at zero frequency ([1]; 288.15 K, w1 = 0.2): 54.96 ± 1.1; relative permittivity at zero frequency ([1]; 288.15 K, w1 = 0.25): 55.78 ± 1.1; relative permittivity at zero frequency ([1]; 293.15 K, w1 = 0.2): 53.36 ± 1.1; relative permittivity at zero frequency ([1]; 293.15 K, w1 = 0.25): 54.3 ± 1.1; relative permittivity at zero frequency ([1]; 298.15 K, w1 = 0.2): 52.23 ± 1.1; relative permittivity at zero frequency ([1]; 298.15 K, w1 = 0.25): 52.77 ± 1.1 |
